{"source": "patent US20160256449A1", "about": "“H3 RECEPTOR ANTAGONIST FOR USE IN THE TREATMENT OF ALZHEIMER'S DISEASE” (SANOFI, priority 2013, published 2016)", "assay_type_in_all_cases": "in vivo, human", "key": {"[1]": {"test_system": "patients with mild to moderate Alzheimer's disease", "assay": "clinical study, responder analysis on combined criterion (ADAS-Cog, ADCS-ADL, CGIC)", "conditions": "week 24", "from_the_text": "FIG. 7 illustrates the rate of “responders” at week 24 for the four dose group according to a combined criterion on the ADAS-Cog (2 points improvement vs baseline), ADCS-ADL (no worsening) and CGIC (no worsening) during the clinical study described in Example 2, in the mITT population.\n“CGIC” as used herein, refers to the Clinical Global impression of Change assessed (at week 12 and week 24 during the clinical study described in Example 2) by the investigator according to 3 modalities: “Improvement” (includes marked, moderate and minimal improvement), “No change” and “Worsening” (includes minimal, moderate and marked worsening).\nFIG. 7 illustrates the responder analysis at week 24 based on a combined criterion defined as followed: […]\nchange from baseline to Week 24 lower than or equal to −2 points in the ADAS-Cog total score, and\nchange from baseline to Week 24 greater than or equal to 0 point in the ADCS-ADL global score, and\nno worsening according to the CGIC assessment at Week 24."}, "[2]": {"test_system": "patients with mild to moderate Alzheimer's disease", "assay": "clinical study, ADAS-Cog 11 items", "conditions": "mITT", "from_the_text": "“ADAS-Cog” as used herein, refers to a sensitive and standardized neuropsychological test battery to assess cognitive dysfunction characteristics of patients with AD including memory and orientation, language (aphasia), motor skills (praxis), attention and concentration. The original, standard version consists of 11 items. The total score of these 11-item scores ranges from 0-70 with higher scores indicating greater cognitive impairment. More recently, two additional tasks have been added in a new 13-item version of the scale proposed for patients with mild disease: Delayed Word Recall and Concentration/Distractibility.\nA randomized, double-blind, parallel-group, placebo-controlled clinical trial was performed to study the effect on cognitive performance, safety, and tolerability of 2-(cyclohexylmethyl)-N-{2-[(2S)-1-methylpyrrolidin-2-yl]ethyl}-1,2,3,4-tetrahydroisoquinoline-7-sulfonamide difumarate monohydrate as adjunct treatment to donepezil. […]\nPatients were randomized to receive 0.5 mg, 2 mg, or 5 mg of 2-(cyclohexylmethyl)-N-{2-[(2S)-1-methylpyrrolidin-2-yl]ethyl}-1,2,3,4-tetrahydroisoquinoline-7-sulfonamide difumarate monohydrate (measured in base form), or matching placebo once a day, with donepezil (5 mg or 10 mg in the form the patient took prior to enrollment), for 24 weeks, with or without food. […]"}, "[3]": {"test_system": "patients with mild to moderate Alzheimer's disease", "assay": "clinical study, AES-I apathy score", "conditions": "5 mg/day with donepezil", "procedure": "“AES-I” as used herein, refers to the Apathy Evaluation Scale for Informant which assess global measure of apathy. Scores range from 18 (best possible) to 72 (worst possible).\n(§1) A randomized, double-blind, parallel-group, placebo-controlled clinical trial was performed to study the effect on cognitive performance, safety, and tolerability of 2-(cyclohexylmethyl)-N-{2-[(2S)-1-methylpyrrolidin-2-yl]ethyl}-1,2,3,4-tetrahydroisoquinoline-7-sulfonamide difumarate monohydrate as adjunct treatment to donepezil.\n(§2) More specifically, patients with mild to moderate Alzheimer's disease on stable donepezil therapy were randomized to receive doses of 0.5 mg, 2 mg, or 5 mg/day of 2-(cyclohexylmethyl)-N-{2-[(2S)-1-methylpyrrolidin-2-yl]ethyl}-1,2,3,4-tetrahydroisoquinoline-7-sulfonamide difumarate monohydrate or placebo for 24 weeks, with a 10 week follow-up period.\n(§3) Patients were randomized to receive 0.5 mg, 2 mg, or 5 mg of 2-(cyclohexylmethyl)-N-{2-[(2S)-1-methylpyrrolidin-2-yl]ethyl}-1,2,3,4-tetrahydroisoquinoline-7-sulfonamide difumarate monohydrate (measured in base form), or matching placebo once a day, with donepezil (5 mg or 10 mg in the form the patient took prior to enrollment), for 24 weeks, with or without food.\nChange from baseline to Week 12 and 24 in the Apathy Evaluation Scale for Informant (AES-I) score; and […]"}, "[4]": {"test_system": "patients with mild to moderate Alzheimer's disease", "assay": "clinical study, CDR-S computerized assessment", "procedure": "“CDR-S” as used herein, refers to the Cognitive Drug Research computerized assessment system which tests various aspects of human cognitive function, memory, and attention.\nas §1, §2, §3\nChange from baseline to Week 24 in the five factors from the Cognitive Drug Research computerized assessment system (CDR-S): power of attention, continuity of attention, quality of working memory, cognitive reaction time, and speed of memory;\nChange from baseline to Week 8 and 24 in the Cognitive Drug Research computerized assessment system (CDR-S) episodic memory;"}}, "data": [{"smiles": "CN1CCC[C@H]1CCNS(=O)(=O)c1ccc2c(c1)CN(CC1CCCCC1)CC2", "note": "[API, 2-(cyclohexylmethyl)-N-{2-[(2S)-1-methylpyrrolidin-2-yl]ethyl}-1,2,3,4-tetrahydroisoquinoline-7-sulfonamide difumarate monohydrate]", "values": [{"measurement": "rate of responder on a combined criterion (ADAS-Cog, ADCS-ADL, CGIC)", "setting": "[1]; 5 mg group with donepezil", "result": 16.7, "unit": "%"}, {"measurement": "rate of responders over placebo", "setting": "[1]; 5 mg/day with donepezil", "result": "higher rate"}, {"measurement": "ADAS-Cog score compared to placebo", "setting": "[2]; 5 mg/day with donepezil, at follow-up", "result": "statistically significant improvement"}, {"measurement": "mean differences in the ADAS-Cog change score", "setting": "[2]; after 24 weeks of treatment, with donepezil", "result": "not significantly different"}, {"measurement": "AES-I change from baseline vs placebo", "setting": "[3]; after 12 weeks, mITT", "result": "significant difference"}, {"measurement": "AES-I difference vs placebo", "setting": "[3]; at 24 weeks and follow-up", "result": "no longer significant"}, {"measurement": "episodic memory difference vs placebo", "setting": "[4]; 5 mg/day with donepezil, at 24 weeks", "result": "no longer significant"}, {"measurement": "power of attention vs placebo, tendency", "setting": "[4]; 0.5 and 5 mg group at week 24", "result": "Tendencies for improvement versus placebo"}, {"measurement": "power of attention change from baseline vs placebo", "setting": "[4]; all dose groups, week 8 or week 24, mITT", "result": "no significant difference"}, {"measurement": "CDR-S measure of working memory", "setting": "[4]; week 24, with donepezil", "result": "not significantly modified"}, {"measurement": "CDR-S other measures of attention/speed of response", "setting": "[4]; week 24, with donepezil", "result": "not significantly modified"}]}]}
